Among the data in patent US20230399342A1 (Incyte Corporation, priority 2022, published 2023) are IC50 values, retold here.

One assay concerns the target DGKα (Homo sapiens (Human), UniProt P23743). Nature of the assay: In vitro DGKα inhibition assay (ADP-Glo). The class given is biochemical. The settings on record: His-tagged human recombinant enzyme, 0.1 nM DGKα, 50 μM ATP, 20 μM DLG, 90 minute incubation. Here is the method: (§1) The DGKα and DGKξ biochemical reactions were performed using His-tagged human recombinant enzymes (Signal Chem, DGKα, #D21-1OBH; DGKξ, #D30-10H)) and DLG (Dilauroyl-sn-glycerol) lipid substrate (Signal Chem, #D430-59). ADP-Glo assay was performed using ADP-Glog™ kinase Assay kit (Promega, #V9104). The reactions were carried out in assay buffer containing 40 mM Tris, pH 7.5, 0.1% CHAPS, 0.1% Prionex, 40 mM NaCl, 5 mM MgCl2, 1 mM CaCl2, and 1 mM DTT. DGKα reactions contained 0.1 nM DGKα, 50 μM ATP, and 20 μM DLG. And DGKC reactions contained 0.4 nM DGK, 30 μM ATP, and 20 μM DLG.
(§2) For compound inhibition studies, 40 nL test compound in DMSO was added to wells of white polystyrene plates in 384-well (Greiner, #784075) or 1536-well format (Greiner, #782075). Compounds were added with top concentration of 2 mM with 11 point, 3-fold dilution series. Enzyme solution (contains 2×DGK enzyme concentration in Ix assay buffer) was added to the plate in 2 μL/well volume, followed by 2 μL/well of substrate solution (contains 2×concentration of ATP and DLG substrate in Ix assay buffer). Plates were then centrifuged for 1 min at 1200 RPM and sealed or lidded. For 4 μL reaction volume, test compounds were therefore diluted 100× to final top concentration of 20 μM. After 90 minute incubation, reactions were quenched by addition of 2 μL/well Promega ADP-Glo Reagent, followed by centrifugation and lidding. After 60 min incubation, 2 μL/well Promega Kinase Detection Reagent was added, plates centrifuged, and incubated for 30 min. Plates were then read using Luminescence method on BMG PHERAstar FSX plate reader. Percent inhibition was calculated and IC50s were determined using 4-parameter fit in Genedata Screener. Labcyte Echo acoustic dispenser was used for compound addition, and Formulatrix Tempest liquid handler was used for all reagent dispenses.
(In general: ADP-Glo first removes unused ATP, then detects ADP through luciferase.)

For the next assay, the target named is DGKζ (Homo sapiens (Human), UniProt Q13574). Nature of the assay: In vitro DGKζ inhibition assay (ADP-Glo). The class given is biochemical. To be noted: His-tagged human recombinant enzyme, 0.4 nM DGK, 30 μM ATP, 20 μM DLG, 90 minute incubation. As for the experimental part:
as §1, §2

A word on the IC50: it is the concentration that inhibits the measured activity by half.

DGKα, sequence (P23743 whole entry): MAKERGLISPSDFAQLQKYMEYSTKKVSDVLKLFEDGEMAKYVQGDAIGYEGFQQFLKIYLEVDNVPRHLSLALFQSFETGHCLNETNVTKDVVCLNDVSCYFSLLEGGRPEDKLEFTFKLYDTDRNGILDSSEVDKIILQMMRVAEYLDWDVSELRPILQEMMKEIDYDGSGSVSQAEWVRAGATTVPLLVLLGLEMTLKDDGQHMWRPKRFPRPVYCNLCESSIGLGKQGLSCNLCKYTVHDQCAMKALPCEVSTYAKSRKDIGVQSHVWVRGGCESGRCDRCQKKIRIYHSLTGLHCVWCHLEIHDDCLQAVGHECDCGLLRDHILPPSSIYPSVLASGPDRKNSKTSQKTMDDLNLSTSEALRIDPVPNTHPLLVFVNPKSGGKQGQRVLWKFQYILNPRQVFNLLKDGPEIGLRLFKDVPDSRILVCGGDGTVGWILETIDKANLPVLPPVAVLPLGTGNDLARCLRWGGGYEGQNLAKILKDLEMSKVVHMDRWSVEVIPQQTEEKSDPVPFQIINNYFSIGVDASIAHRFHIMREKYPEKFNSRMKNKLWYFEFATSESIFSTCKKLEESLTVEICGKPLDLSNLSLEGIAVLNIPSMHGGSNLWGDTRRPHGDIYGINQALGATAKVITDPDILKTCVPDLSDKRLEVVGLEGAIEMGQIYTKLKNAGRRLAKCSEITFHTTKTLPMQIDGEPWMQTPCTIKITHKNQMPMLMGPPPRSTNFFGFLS
DGKζ, sequence (Q13574 whole entry): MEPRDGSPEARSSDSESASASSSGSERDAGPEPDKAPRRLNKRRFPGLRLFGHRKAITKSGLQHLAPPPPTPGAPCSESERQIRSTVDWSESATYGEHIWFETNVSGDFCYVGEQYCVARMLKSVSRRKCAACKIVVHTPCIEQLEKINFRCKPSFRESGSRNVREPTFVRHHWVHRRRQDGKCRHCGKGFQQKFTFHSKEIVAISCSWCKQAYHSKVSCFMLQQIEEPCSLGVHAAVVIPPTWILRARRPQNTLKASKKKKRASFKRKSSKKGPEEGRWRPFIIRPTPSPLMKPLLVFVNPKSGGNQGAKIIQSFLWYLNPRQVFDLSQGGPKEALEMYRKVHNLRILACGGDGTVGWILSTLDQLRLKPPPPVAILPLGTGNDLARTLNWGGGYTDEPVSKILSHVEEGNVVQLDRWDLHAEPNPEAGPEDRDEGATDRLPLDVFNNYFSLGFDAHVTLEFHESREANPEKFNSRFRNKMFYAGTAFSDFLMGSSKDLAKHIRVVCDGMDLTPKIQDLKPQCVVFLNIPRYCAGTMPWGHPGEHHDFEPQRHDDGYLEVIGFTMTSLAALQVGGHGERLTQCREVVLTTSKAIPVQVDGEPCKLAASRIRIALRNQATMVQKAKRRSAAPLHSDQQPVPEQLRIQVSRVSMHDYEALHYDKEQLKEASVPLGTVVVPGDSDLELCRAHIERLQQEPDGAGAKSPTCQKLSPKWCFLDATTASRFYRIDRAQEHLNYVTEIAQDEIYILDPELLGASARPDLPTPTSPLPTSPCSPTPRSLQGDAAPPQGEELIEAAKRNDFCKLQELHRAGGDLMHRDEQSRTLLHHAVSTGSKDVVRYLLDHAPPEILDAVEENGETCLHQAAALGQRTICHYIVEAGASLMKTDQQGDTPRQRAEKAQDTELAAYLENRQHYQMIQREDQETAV

As to `COC[C@@H]1CN(c2nc3nncn3c3scnc23)[C@@H](C)CN1C(c1ccc(F)cc1)c1ccc(F)cc1` [Example 13, 4-((2S,5S)-4-(Bis(4-fluorophenyl)methyl)-5-(methoxymethyl)-2-methylpiperazin-1-yl)thiazolo[4,5-e][1,2,4]triazolo[4,3-a]pyrimidine], the results for the IC50 at DGKα and at DGKζ were at most 0.02 µM and 0.02 to 0.2 µM, respectively.
The matching figures for `C[C@H]1CN(C(c2ccc(F)cc2)c2ccc(F)cc2)[C@H](CC#N)CN1c1nc2nncn2c2scnc12` [Example 14, 2-((2R,5S)-1-(Bis(4-fluorophenyl)methyl)-5-methyl-4-(thiazolo[4,5-e][1,2,4]triazolo[4,3-a]pyrimidin-4-yl)piperazin-2-yl)acetonitrile]: at most 0.02 µM and at most 0.02 µM.
`C[C@H]1CN(C(c2ccc(F)cc2)c2ccc(F)cc2)[C@H](CC#N)CN1c1nc2nnc(C3CC3)n2c2scnc12` [Example 15, 2-((2R,5S)-1-(Bis(4-fluorophenyl)methyl)-4-(8-cyclopropylthiazolo[4,5-e][1,2,4]triazolo[4,3-a]pyrimidin-4-yl)-5-methylpiperazin-2-yl)acetonitrile]: the IC50 at DGKα is 0.02 to 0.2 µM; at DGKζ, at most 0.02 µM.
As for `C[C@H]1CN(C(c2ccc(F)cc2)c2ccc(F)cc2)[C@H](CC#N)CN1c1nc2nncn2c2c1ncn2C` [Example 16, 2-((2R,5S)-1-(Bis(4-fluorophenyl)methyl)-5-methyl-4-(1-methyl-1H-[1,2,4]triazolo[3,4-b]purin-4-yl)piperazin-2-yl)acetonitrile], the IC50 at DGKα and on DGKζ was at most 0.02 µM each time.
With `N#CCC[C@@H]1CN(c2nc3nncn3c3scnc23)CCN1C(c1ccc(F)cc1)c1ccc(F)cc1` [Example 17, (R)-3-(1-(Bis(4-fluorophenyl)methyl)-4-(thiazolo[4,5-e][1,2,4]triazolo[4,3-a]pyrimidin-4-yl)piperazin-2-yl)propanenitrile], the IC50 on DGKα was at most 0.02 µM; at DGKζ it was 0.02 to 0.2 µM.
With `C[C@@H]1CN(c2nc3nncn3c3c2ncn3CC2CC2)[C@@H](C)CN1C(c1ccc(F)cc1)c1ccc(F)cc1` [Example 18, 4-((2S,5R)-4-(Bis(4-fluorophenyl)methyl)-2,5-dimethylpiperazin-1-yl)-1-(cyclopropylmethyl)-1H-[1,2,4]triazolo[3,4-b]purine], the IC50 on DGKα and on DGKζ was at most 0.02 µM in each case.
As for `Cc1nc2c(N3C[C@@H](C)N(C(c4ccc(F)cc4)c4ccc(F)cc4)C[C@@H]3C)nc3nncn3c2n1C[C@@H]1CCCO1` [Example 19, 4-((2S,5R)-4-(Bis(4-fluorophenyl)methyl)-2,5-dimethylpiperazin-1-yl)-2-methyl-1-(((S)-tetrahydrofuran-2-yl)methyl)-1H-[1,2,4]triazolo[3,4-b]purine], the concentration for half-maximal inhibition (IC50) on DGKα and at DGKζ was at most 0.02 µM each time.
As to `CC[C@@H]1CN(c2nc3nncn3c3c2nc(C)n3C[C@@H]2CCCO2)[C@@H](C)CN1C(c1ccc(F)cc1)c1ccc(F)cc1` [Example 20, 4-((2S,5R)-4-(Bis(4-fluorophenyl)methyl)-5-ethyl-2-methylpiperazin-1-yl)-2-methyl-1-(((S)-tetrahydrofuran-2-yl)methyl)-1H-[1,2,4]triazolo[3,4-b]purine], the IC50 at DGKα and on DGKζ was at most 0.02 µM each time.
For `CC[C@H]1CN(C(c2ccc(F)cc2)c2ccc(F)cc2)[C@H](CC)CN1c1nc2nncn2c2c1ncn2CC1CC1` [Example 21, 4-((2S,5R)-4-(Bis(4-fluorophenyl)methyl)-2,5-diethylpiperazin-1-yl)-1-(cyclopropylmethyl)-1H-[1,2,4]triazolo[3,4-b]purine], the IC50 at DGKα and at DGKζ was at most 0.02 µM throughout.
Turning to `CC(C)[C@@H](c1ccc(F)cc1)N1C[C@H](C)N(c2nc3nncn3c3c2ncn3CC2CC2)C[C@H]1C` [Example 22, 1-(Cyclopropylmethyl)-4-((2S,5R)-4-((S)-1-(4-fluorophenyl)-2-methylpropyl)-2,5-dimethylpiperazin-1-yl)-1H-[1,2,4]triazolo[3,4-b]purine], the IC50 at DGKα and at DGKζ was at most 0.02 µM each time.
For `CC(C)[C@H](c1ccc(F)cc1)N1C[C@H](C)N(c2nc3nncn3c3c2ncn3CC2CC2)C[C@H]1C` [Example 23, 1-(cyclopropylmethyl)-4-((2S,5R)-4-((R)-1-(4-fluorophenyl)-2-methylpropyl)-2,5-dimethylpiperazin-1-yl)-1H-[1,2,4]triazolo[3,4-b]purine], the half-inhibitory concentration (IC50) on DGKα and at DGKζ was at most 0.02 µM in each case.
On to `C[C@@H]1CN(c2nc3nncn3c3c2ncn3CC2CC2)[C@@H](C)CN1[C@@H](c1ccc(F)cc1)c1ccc(OC(F)(F)F)cn1` [Example 24, 1-(Cyclopropylmethyl)-4-((2S,5R)-4-((S)-(4-fluorophenyl)(5-(trifluoromethoxy)pyridin-2-yl)methyl)-2,5-dimethylpiperazin-1-yl)-1H-[1,2,4]triazolo[3,4-b]purine], for which the IC50 at DGKα and on DGKζ was at most 0.02 µM each time.
As for `C[C@@H]1CN(c2nc3nncn3c3c2ncn3CC2CC2)[C@@H](C)CN1[C@H](c1ccc(F)cc1)c1ccc(OC(F)(F)F)cn1` [Example 25, 1-(cyclopropylmethyl)-4-((2S,5R)-4-((R)-(4-fluorophenyl)(5-(trifluoromethoxy)pyridin-2-yl)methyl)-2,5-dimethylpiperazin-1-yl)-1H-[1,2,4]triazolo[3,4-b]purine], the concentration for half-maximal inhibition (IC50) was at most 0.02 µM on DGKα and 0.02 to 0.2 µM on DGKζ.
On the same counts, the results for `C[C@@H]1CN(c2nc3nncn3c3c2ncn3C[C@@H]2CCCO2)[C@@H](C)CN1[C@@H](c1ccc(F)cc1)c1ccc(OC(F)(F)F)cn1` [Example 26, 4-((2S,5R)-4-((S)-(4-Fluorophenyl)(5-(trifluoromethoxy)pyridin-2-yl)methyl)-2,5-dimethylpiperazin-1-yl)-1-(((S)-tetrahydrofuran-2-yl)methyl)-1H-[1,2,4]triazolo[3,4-b]purine] are at most 0.02 µM and at most 0.02 µM.
The matching figures for `C[C@@H]1CN(c2nc3nncn3c3c2ncn3C[C@@H]2CCCO2)[C@@H](C)CN1[C@H](c1ccc(F)cc1)c1ccc(OC(F)(F)F)cn1` [Example 27, 4-((2S,5R)-4-((R)-(4-fluorophenyl)(5-(trifluoromethoxy)pyridin-2-yl)methyl)-2,5-dimethylpiperazin-1-yl)-1-(((S)-tetrahydrofuran-2-yl)methyl)-1H-[1,2,4]triazolo[3,4-b]purine]: at most 0.02 µM and at most 0.02 µM.
As for `C[C@@H]1CN(c2nc3nncn3c3c2ncn3CCN(C)C)[C@@H](C)CN1C(c1ccc(F)cc1)c1ccc(F)cc1` [Example 28, 2-(4-((2S,5R)-4-(Bis(4-fluorophenyl)methyl)-2,5-dimethylpiperazin-1-yl)-1H-[1,2,4]triazolo[3,4-b]purin-1-yl)-N,N-dimethylethan-1-amine], the concentration for half-maximal inhibition (IC50) at DGKα and on DGKζ was at most 0.02 µM each time.
For the compound `C[C@@H]1CN(c2nc3nncn3c3c2nnn3C[C@H]2CCCO2)[C@@H](C)CN1C(c1ccc(F)cc1)c1ccc(F)cc1` [Example 29, 4-((2S,5R)-4-(Bis(4-fluorophenyl)methyl)-2,5-dimethylpiperazin-1-yl)-1-(((R)-tetrahydrofuran-2-yl)methyl)-1H-[1,2,3]triazolo[4,5-e][1,2,4]triazolo[4,3-a]pyrimidine], the half-maximal inhibitory concentration (IC50) at DGKα and at DGKζ was at most 0.02 µM each time.
Consider `CC[C@@H]1CN(c2nc3nncn3c3c2nnn3C[C@@H]2CCCO2)[C@@H](C)CN1C(c1ccc(F)cc1)c1ccc(F)cc1` [Example 30, 4-((2S,5R)-4-(Bis(4-fluorophenyl)methyl)-5-ethyl-2-methylpiperazin-1-yl)-1-(((S)-tetrahydrofuran-2-yl)methyl)-1H-[1,2,3]triazolo[4,5-e][1,2,4]triazolo[4,3-a]pyrimidine], for which the IC50 at DGKα and on DGKζ was at most 0.02 µM throughout.
With `CC[C@H]1CN(C(c2ccc(F)cc2)c2ccc(F)cc2)[C@H](CC)CN1c1nc2nncn2c2c1nnn2C[C@@H]1CCCO1` [Example 31, 4-((2S,5R)-4-(Bis(4-fluorophenyl)methyl)-2,5-diethylpiperazin-1-yl)-1-(((S)-tetrahydrofuran-2-yl)methyl)-1H-[1,2,3]triazolo[4,5-e][1,2,4]triazolo[4,3-a]pyrimidine], the half-maximal inhibitory concentration (IC50) at DGKα and on DGKζ was at most 0.02 µM throughout.
For `CC[C@@H]1CN(c2nc3nncn3c3c2nnn3C[C@H]2CCCO2)[C@@H](C)CN1C(c1ccc(F)cc1)c1ccc(F)cc1` [Example 32, 4-((2S,5R)-4-(Bis(4-fluorophenyl)methyl)-5-ethyl-2-methylpiperazin-1-yl)-1-(((R)-tetrahydrofuran-2-yl)methyl)-1H-[1,2,3]triazolo[4,5-e][1,2,4]triazolo[4,3-a]pyrimidine], the half-maximal inhibitory concentration (IC50) at DGKα and at DGKζ was at most 0.02 µM in each case.
